The record followed here is patent US9745261B2, “Inhibitors of the MITF molecular pathway” (THE GENERAL HOSPITAL CORPORATION, priority 2013, dated 2017).

The target in series [1] is T1, Adenosine A2A (Homo sapiens, UniProt P29274).
T1 construct: Eurofins Panlabs, Inc. (contract assay) 200610 (assay number)
Put plainly: Radioligand binding, Adenosine A2A.

Series [2] concerns the target T2, Serotonin (5-Hydroxytryptamine) 5-HT1A (Homo sapiens, UniProt P08908).
T2 construct: Eurofins Panlabs
Put plainly: Radioligand binding, Serotonin (5-Hydroxytryptamine) 5-HT1A.

Series [3] has as its target T3, Glucocorticoid (Homo sapiens, UniProt P04150).
T3 construct: Eurofins Panlabs, Inc
Put plainly: Radioligand binding, Glucocorticoid.

Series [4] addresses T4, Histamine H2 (Homo sapiens, UniProt P25021).
T4 construct: Eurofins Panlabs, Inc
Put plainly: Radioligand binding, Histamine H2.

The target in series [5] is T5, Leukotriene, Cysteinyl CysLT1 (Homo sapiens, UniProt Q9Y271).
T5 construct: Eurofins Panlabs, Inc
Nature of the series: Radioligand binding, Leukotriene, Cysteinyl CysLT1.

Series [6] deals with T6, Tachykinin NK1 (Homo sapiens, UniProt P25103).
T6 construct: Eurofins Panlabs
Put plainly: Radioligand binding, Tachykinin NK1.

Series [7] has as its target T7, Epidermal Growth Factor (EGF) (Homo sapiens, UniProt P00533).
T7 construct: Eurofins Panlabs, Inc. (contract assay)
Put plainly: Radioligand binding, Epidermal Growth Factor (EGF).

The target of series [8] is T8, Transporter, Norepinephrine (NET) (Homo sapiens, UniProt P23975).
T8 construct: Eurofins Panlabs
Nature of the series: Radioligand binding, Transporter, Norepinephrine (NET).

Series [9] concerns the target T9, GABAB1A (Homo sapiens, UniProt Q9UBS5).
T9 construct: Eurofins Panlabs, Inc
Put plainly: Radioligand binding, GABAB1A.

Series [10] has as its target T10, Melatonin MT1 (Homo sapiens, UniProt P48039).
T10 construct: Eurofins Panlabs, Inc
Nature of the series: Radioligand binding, Melatonin MT1.

Series [11] has as its target T11, Potassium Channel hERG (Homo sapiens, UniProt Q12809).
T11 construct: Eurofins Panlabs
Nature of the series: Radioligand binding, Potassium Channel hERG. (Block of hERG is tested as a sign of cardiac risk.)

In series [12] the target is T12, Serotonin (5-Hydroxytryptamine) 5-HT2B (Homo sapiens, UniProt P41595).
T12 construct: Eurofins Panlabs
Put plainly: Radioligand binding, Serotonin (5-Hydroxytryptamine) 5-HT2B.

In series [13] the target is T13, Adrenergic β1 (Homo sapiens, UniProt P08588).
T13 construct: Eurofins Panlabs, Inc. (contract assay)
Put plainly: Radioligand binding, Adrenergic β1.

For series [14], the target named is T14, Glutamate, NMDA, Glycine (Rattus norvegicus, UniProt P35439).
T14 construct: Eurofins Panlabs, Inc
Nature of the series: Radioligand binding, Glutamate, NMDA, Glycine.

Series [15] concerns the target T15, Dopamine D4.2 (Homo sapiens, UniProt P21917, DEL265-296).
T15 construct: Eurofins Panlabs, Inc. (contract assay)
Put plainly: Radioligand binding, Dopamine D4.2.

Series [16] has as its target T16, Prostanoid EP4 (Homo sapiens, UniProt P35408).
T16 construct: Eurofins Panlabs
Put plainly: Radioligand binding, Prostanoid EP4.

In series [17] the test system is MLANA. Nature of the series: qPCR assay for MLANA expression in SK-MEL-5 cells. Format: cell-based. Conditions: Homo sapiens; SK-MEL-5 melanoma cells, up to 35 μM. A general note: In qPCR the cycle at which signal appears reflects the starting amount.
In series [18] the test system is SK-MEL-5 cells. Put plainly: SK-MEL-5 cell cytotoxicity assay (CellTiter-Glo). It counts as cell-based, human. Conditions: Homo sapiens, SK-MEL-5; 24 hours, CellTiter-Glo; read-out: Target Potency IC50 (μM) SKMEL5. Here is the method:
SK-MEL-5 cells were treated with compounds for 24 hours, and then cell viability was measured using the CellTiter-Glo Assay (Promega), a luciferase-based reagent that measures cellular ATP levels. The compounds were tested at different concentrations to determine IC50 values. Compounds that were active in the primary assay and toxic below 30 μM at 24 hours were considered for probe development. Data were normalized against DMSO in Genedata Screener's Assay Analyzer.
SK-MEL-5 cells were maintained in DMEM (10% FBS, 1% Pen-Strep-Glutamine). Cells were fluid changed every 3 days and/or split upon reaching 100% confluency. For secondary assays, cells were thawed at 4 million cells per Falcon T175 flask. After 3 days, the cells were fluid changed, after 3 more days cells were passed to a Corning Triple flask (10-15 million cells) and plated after 3 days in the triple flask.
Day 1 • 1. Plate SK-MEL-5 cells at 3,000 per well in 30 uL media (phenol red free DMEM/10% Fetal Bovine Serum/Penicillin/Streptomycin/L-Glutamine) • 2. Use Corning white 384-well, square, opaque-bottomed plates (Corning Catalog No. 8867BC)
Day 2 • 3. Pin 100 nL compound/DMSO solution (Cybi Well) into assay plates. (For HTS, required sentinel pinning with the positive control, parthenolide (6 mM)) • 4. […]
Day 3 • 5. […] Read on the Perkin-Elmer EnVision plate reader with luminescence (LUM) settings for 0.1 sec per well. […]
For orientation: Cellular ATP, detected with luciferase, serves as a proxy for viable cell number.

The subject of series [19] is TRPM-1 promoter. Put plainly: SK-MEL-5 TRPM-1 luciferase reporter (TRPM-1 promoter activity assay). It counts as cell-based. Conditions: Homo sapiens; SK-MEL-5 TRPM-1:luc cells, 24 hours, SteadyGlo; read-out: Target Potency IC50 (μM) TRPM1. The method, then: The TRPM1 luciferase promoter construct was transfected into the SK-MEL-5 melanoma cell line and a stable cell line was generated. This promoter is exquisitely sensitive to MITF over-expression and suppression and contains three canonical E-box motifs within the cloned promoter fragment (17). On day 0, cells were plated at 2,000 cells per well into white, opaque 384 well plates in phenol red-free media. On day 1, cells were treated with compounds or positive control for 24 hours. On day 2, 20 uL of SteadyGlo (Promega) was added per well and luminescence signal was determined with the Perkin-Elmer EnVision plate reader. Primary HTS data were analyzed in Genedata Screener Assay Analyzer. All values were normalized against DMSO treated samples and the positive control (18 μM parthenolide, CID 6473881). For the HTS, the average of two replicates was used to rank order activity and to choose compounds for retests. For dose studies, percent (%) activity was determined for each concentration and the concentration response curves (CRCs) were generated with Genedata Screener's Condoseo.
SK-MEL-5/TRPM1Luc cells were maintained in DMEM (10% FBS, 1% Pen-Strep-Glutamine, 250 ug/mL Hygromycin). […]
Day 3 • 5. […] Read on the Perkin-Elmer EnVision plate reader with ultra-sensitive luminescence (US LUM) settings for 0.5 sec per well SK-MEL-5 Cytotoxicity Assay (2084-02)

T9 sequence (Q9UBS5 15-961 limits assumed): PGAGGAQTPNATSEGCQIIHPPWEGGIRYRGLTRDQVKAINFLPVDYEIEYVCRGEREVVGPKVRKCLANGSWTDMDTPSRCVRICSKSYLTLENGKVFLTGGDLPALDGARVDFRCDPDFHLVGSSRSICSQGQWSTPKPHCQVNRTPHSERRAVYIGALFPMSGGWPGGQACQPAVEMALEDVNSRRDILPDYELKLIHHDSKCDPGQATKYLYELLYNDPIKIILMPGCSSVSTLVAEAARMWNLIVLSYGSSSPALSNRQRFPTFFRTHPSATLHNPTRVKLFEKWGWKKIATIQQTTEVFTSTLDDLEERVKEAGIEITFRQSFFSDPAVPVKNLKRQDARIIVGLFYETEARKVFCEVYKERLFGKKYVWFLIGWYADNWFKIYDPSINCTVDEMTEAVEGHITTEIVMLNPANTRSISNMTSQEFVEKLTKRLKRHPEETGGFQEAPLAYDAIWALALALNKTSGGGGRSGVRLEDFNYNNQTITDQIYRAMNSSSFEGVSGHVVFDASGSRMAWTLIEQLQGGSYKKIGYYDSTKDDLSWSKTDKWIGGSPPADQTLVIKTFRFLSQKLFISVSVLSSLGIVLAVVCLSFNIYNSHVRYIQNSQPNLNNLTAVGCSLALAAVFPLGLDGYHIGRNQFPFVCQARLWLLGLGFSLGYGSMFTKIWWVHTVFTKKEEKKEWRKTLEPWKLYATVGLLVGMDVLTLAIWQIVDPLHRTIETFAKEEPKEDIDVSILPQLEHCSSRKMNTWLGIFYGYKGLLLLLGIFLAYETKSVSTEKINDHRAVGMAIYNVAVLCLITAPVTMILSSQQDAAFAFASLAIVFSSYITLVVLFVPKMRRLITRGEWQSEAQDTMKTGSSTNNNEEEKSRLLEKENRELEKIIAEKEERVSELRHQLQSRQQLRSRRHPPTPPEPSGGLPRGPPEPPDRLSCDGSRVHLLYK
T1 sequence (P29274 whole entry): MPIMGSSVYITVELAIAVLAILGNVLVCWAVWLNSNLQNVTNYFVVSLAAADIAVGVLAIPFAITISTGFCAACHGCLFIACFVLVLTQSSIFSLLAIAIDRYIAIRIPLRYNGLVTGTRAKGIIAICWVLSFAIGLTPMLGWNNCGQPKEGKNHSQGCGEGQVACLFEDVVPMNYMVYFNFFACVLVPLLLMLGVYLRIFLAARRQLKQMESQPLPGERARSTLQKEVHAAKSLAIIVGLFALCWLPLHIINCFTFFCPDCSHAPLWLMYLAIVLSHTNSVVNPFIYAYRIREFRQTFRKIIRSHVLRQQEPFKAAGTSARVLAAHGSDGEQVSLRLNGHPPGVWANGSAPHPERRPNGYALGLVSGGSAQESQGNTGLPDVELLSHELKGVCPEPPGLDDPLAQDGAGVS
T11 sequence (Q12809 whole entry): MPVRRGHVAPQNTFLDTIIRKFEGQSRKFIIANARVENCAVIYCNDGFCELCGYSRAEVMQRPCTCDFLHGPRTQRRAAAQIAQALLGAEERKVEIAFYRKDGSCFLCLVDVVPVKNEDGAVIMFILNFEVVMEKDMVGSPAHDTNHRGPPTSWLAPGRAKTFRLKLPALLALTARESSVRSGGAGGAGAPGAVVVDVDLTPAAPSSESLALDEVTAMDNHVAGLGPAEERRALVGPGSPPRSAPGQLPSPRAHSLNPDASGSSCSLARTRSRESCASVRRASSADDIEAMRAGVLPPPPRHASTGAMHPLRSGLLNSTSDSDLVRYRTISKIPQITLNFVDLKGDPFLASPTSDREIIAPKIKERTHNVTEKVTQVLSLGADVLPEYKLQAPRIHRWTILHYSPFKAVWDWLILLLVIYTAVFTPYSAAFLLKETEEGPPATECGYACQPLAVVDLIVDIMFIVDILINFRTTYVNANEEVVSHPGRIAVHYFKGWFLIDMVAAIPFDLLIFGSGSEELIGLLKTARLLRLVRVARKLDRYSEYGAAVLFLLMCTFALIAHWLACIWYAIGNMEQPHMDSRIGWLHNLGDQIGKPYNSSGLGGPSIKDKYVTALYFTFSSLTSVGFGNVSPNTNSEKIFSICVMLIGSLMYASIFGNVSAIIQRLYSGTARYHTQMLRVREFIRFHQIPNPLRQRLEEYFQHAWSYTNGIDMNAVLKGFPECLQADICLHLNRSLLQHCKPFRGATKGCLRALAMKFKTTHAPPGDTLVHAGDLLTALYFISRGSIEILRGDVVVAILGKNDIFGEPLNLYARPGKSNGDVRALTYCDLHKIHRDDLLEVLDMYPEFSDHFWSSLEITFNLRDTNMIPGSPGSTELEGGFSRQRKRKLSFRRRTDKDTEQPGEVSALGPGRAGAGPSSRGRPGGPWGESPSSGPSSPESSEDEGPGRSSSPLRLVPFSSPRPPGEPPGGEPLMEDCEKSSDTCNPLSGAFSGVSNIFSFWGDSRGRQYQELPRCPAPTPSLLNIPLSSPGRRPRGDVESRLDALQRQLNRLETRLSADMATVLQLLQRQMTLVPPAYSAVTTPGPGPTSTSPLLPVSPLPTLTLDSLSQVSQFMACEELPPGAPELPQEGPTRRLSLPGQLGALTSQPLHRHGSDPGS
T4 sequence (P25021 whole entry): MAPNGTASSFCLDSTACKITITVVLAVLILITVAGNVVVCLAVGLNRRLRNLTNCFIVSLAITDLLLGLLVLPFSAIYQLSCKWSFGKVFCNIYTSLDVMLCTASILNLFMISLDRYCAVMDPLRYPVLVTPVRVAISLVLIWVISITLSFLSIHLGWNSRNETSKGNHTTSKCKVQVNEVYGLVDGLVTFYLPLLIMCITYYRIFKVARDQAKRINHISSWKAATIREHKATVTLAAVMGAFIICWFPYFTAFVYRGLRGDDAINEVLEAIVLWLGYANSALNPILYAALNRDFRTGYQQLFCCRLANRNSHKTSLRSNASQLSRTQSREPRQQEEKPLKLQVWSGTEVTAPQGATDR
T3 sequence (P04150 whole entry): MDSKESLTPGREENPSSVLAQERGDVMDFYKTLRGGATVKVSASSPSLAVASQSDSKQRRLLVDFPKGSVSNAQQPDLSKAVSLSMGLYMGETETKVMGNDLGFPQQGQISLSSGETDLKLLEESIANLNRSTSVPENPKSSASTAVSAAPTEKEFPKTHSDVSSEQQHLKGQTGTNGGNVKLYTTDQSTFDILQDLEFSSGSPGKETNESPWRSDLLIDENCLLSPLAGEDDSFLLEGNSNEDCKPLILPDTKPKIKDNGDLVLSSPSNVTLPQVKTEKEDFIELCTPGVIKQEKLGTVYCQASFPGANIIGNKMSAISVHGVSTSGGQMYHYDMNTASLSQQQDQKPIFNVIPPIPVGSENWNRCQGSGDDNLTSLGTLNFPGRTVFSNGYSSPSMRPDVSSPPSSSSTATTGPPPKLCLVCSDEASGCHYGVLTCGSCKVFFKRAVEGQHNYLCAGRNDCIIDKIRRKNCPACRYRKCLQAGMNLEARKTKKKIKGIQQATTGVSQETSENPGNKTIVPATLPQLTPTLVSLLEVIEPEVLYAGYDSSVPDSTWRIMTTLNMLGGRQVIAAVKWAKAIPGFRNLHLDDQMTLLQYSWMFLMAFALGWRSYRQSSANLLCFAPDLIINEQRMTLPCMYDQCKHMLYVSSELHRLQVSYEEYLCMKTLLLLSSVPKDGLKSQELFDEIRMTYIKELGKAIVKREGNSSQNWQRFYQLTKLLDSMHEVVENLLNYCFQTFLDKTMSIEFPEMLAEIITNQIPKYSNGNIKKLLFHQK
T16 sequence (P35408 whole entry): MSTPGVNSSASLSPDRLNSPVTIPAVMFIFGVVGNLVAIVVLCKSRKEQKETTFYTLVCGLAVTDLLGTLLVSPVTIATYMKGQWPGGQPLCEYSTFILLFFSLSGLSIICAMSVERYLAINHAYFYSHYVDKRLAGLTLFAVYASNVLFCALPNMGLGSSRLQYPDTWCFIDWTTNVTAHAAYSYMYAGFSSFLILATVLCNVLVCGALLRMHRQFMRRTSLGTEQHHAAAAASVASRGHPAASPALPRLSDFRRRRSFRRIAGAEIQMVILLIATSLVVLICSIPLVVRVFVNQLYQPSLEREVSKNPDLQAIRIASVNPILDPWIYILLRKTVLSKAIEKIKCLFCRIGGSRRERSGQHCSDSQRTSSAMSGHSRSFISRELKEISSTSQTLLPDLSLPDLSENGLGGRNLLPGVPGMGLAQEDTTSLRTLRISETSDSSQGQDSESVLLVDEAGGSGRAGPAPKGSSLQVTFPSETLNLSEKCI
T15 sequence (P21917 with tags, fused parts or gaps DEL265-296): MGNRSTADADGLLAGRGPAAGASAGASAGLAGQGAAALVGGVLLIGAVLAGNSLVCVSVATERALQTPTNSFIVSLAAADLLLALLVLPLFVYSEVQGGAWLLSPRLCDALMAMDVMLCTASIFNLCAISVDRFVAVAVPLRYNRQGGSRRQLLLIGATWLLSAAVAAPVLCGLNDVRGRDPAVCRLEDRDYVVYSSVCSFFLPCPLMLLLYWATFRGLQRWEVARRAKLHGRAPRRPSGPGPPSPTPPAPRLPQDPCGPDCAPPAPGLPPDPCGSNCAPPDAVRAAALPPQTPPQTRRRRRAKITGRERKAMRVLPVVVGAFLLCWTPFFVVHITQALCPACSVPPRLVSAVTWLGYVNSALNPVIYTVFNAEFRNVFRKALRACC
T2 sequence (P08908 whole entry): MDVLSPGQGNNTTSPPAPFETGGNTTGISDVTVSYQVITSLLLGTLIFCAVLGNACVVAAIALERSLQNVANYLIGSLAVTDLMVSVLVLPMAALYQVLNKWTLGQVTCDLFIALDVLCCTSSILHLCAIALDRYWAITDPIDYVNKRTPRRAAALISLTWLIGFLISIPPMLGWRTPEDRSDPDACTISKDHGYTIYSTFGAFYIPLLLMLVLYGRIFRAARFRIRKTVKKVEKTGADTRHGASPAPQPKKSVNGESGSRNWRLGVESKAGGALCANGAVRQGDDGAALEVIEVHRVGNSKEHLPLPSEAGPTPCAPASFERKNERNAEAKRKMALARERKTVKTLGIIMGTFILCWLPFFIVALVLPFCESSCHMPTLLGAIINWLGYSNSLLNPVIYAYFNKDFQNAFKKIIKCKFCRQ

Broadly, the inhibition is the change of the read-out against control, counted positive when it falls. Take `NS(=O)(=O)c1ccc(NC2=CC(=O)c3ccccc3C2=O)cc1` [Example 1, 4-((1,4-Dioxo-1,4-dihydronaphthalen-2-yl)amino)benzenesulfonamide]: the inhibition at 10 µM was 50% in series [1]; 21% in [2]; 5% in series [3]; -5% in series [4]; 5% in series [5]; 37% in series [6]. The inhibition at 10 µM was 11% in [7]; 8% in series [8]; 11% in series [9]; 9% in [10]; -4% in [11]; 37% in series [12]. The inhibition at 10 µM stood at 20% in [13], 9% in [14], 4% in [15] and 11% in series [16].
As a reminder, the EC50 is the concentration that produces a half-maximal response. A lower EC50 goes with a more potent agent. Broadly, the IC50 is the midpoint of a concentration-inhibition curve. `NS(=O)(=O)c1ccc(NC2=CC(=O)c3ccccc3C2=O)cc1` [4-((1,4-dioxo-1,4-dihydronaphthalen-2-yl)amino)benzenesulfonamide]: in series [17], the EC50 came to 500 nM. Also, the IC50 in series [18] turned out to be 0.75 µM; in series [19] it was 1.2 µM.
